These results are taken from US20130053243A1, “PLANTS HAVING INCREASED TOLERANCE TO HERBICIDES” (BASF SE, priority 2010, published 2013).

For one experiment, the target named is T1, Arabidopsis HPPD (Arabidopsis thaliana, UniProt P93836).
T1 construct: His6 (N); made in house; host or cells: E. coli BL21 (DE3)
T1 sequence (P93836 1-445): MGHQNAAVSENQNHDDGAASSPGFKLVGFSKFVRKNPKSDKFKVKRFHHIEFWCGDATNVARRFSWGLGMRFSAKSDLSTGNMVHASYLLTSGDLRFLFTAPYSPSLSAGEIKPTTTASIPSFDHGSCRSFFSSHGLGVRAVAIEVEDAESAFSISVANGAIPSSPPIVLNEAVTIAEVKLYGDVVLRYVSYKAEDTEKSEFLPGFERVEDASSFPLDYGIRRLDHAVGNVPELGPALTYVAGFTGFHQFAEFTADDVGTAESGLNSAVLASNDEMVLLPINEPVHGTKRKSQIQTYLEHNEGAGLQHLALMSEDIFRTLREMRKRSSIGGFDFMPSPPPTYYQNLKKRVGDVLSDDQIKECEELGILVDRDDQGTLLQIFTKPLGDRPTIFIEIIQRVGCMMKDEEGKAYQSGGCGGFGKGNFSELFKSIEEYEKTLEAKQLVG
Put plainly: HPPD activity assay (homogentisic acid by HPLC), wildtype enzyme. The experiment is classed as biochemical. The conditions noted are these: Table 11, calculated from IC50 with Cheng-Prusoff equation, read-out: dissociation constant Ki. How it is done:
(§1) HPPD produces homogentisic acid and CO2 from 4-hydroxyphenylpyruvate (4-HPP) and O2. The activity assay for HPPD is based on the analysis of homogentisic acid by reversed phase HPLC.
(§2) The assay mixture can contain 150 mM potassium phosphate buffer pH 7.0, 50 mM L-ascorbic acid, 1 μM FeSO4 and 7 μg of purified enzyme in a total volume of 1 ml.
(§3) Inhibitors are dissolved in DMSO (dimethylsulfoxide) to a concentration of 20 mM or 0.5 mM, respectively. From this stock solution serial five-fold dilutions are prepared in DMSO, which are used in the assay. The respective inhibitor solution accounts for 1% of the assay volume. Thus, final inhibitor concentrations range from 200 μM to 2.5 nM or from 5 μM to 63 pM, respectively.
(§4) After a preincubation of 30 min the reaction is started by adding 4-HPP to a final concentration of 0.1 mM. The reaction is allowed to proceed for 120 min at room temperature. The reaction is stopped by addition of 100 μl of 4.5 M phosphoric acid.
The sample is extracted on an Oasis® HLB cartridge 3 cc/60 mg (Waters) that was preequilibrated with 63 mM phosphoric acid. L-ascorbic acid is washed out with 3 ml of 63 mM phosphoric acid. […]
(§5) 10 μl of the eluate is analyzed by reversed phase HPLC on a Symmetry® C18 column (particle size 3.5 μm, dimensions 4.6×100 mm; Waters) using 5 mM H3PO4/15% ethanol (w/w) as an eluent.
(§6) Homogentisic acid is detected electrochemically and quantified by measuring peak areas (Empower software; Waters).
Activities are normalized by setting the uninhibited enzyme activity to 100%. IC50 values are calculated using non-linear regression. […]
(§7) 5 μl of the cleared sample is analyzed on an Atlantis T3 column (particle size 3 μm, dimensions 3×50 mm; Waters) by isocratic elution using 90% 10 mM NaH2PO4 pH 2.2, 10% methanol (v/v).
(§8) HGA is detected electrochemically at 750 mV (mode: DC; polarity: positive) and quantified by integrating peak areas (Empower software; Waters).
Inhibitors are dissolved in DMSO (dimethylsulfoxide) to a concentration of 0.5 mM. […] IC50 values are calculated using non-linear regression. […]

The target in experiment [1] is T2, Arabidopsis HPPD variant Q293N (Arabidopsis thaliana, UniProt P93836, Q293N).
T2 construct: His6 (N); made in house; host or cells: E. coli BL21 (DE3)
Put plainly: HPPD activity assay, mutant enzyme. In kind it is biochemical. The protocol: as §1, §2, §3, §4
(§9) The sample is extracted on an Oasis® HLB cartridge 3 cc/60 mg (Waters) that was preequilibrated with 63 mM phosphoric acid. L-ascorbic acid is washed out with 3 ml of 63 mM phosphoric acid. Homogentisate is eluted with 1 ml of a 1:1 mixture of 63 mM phosphoric acid and methanol (w/w).
as §5, §6
(§10) Activities are normalized by setting the uninhibited enzyme activity to 100%. IC50 values are calculated using non-linear regression.
(§11) The assay mixture can contain 150 mM potassium phosphate buffer pH 7.0, 50 mM L-ascorbic acid, 100 μM Catalase (Sigma-Aldrich), 1 μM FeSO4 and 0.2 units of purified HPPD enzyme in a total volume of 505 μl. 1 unit is defined as the amount of enzyme that is required to produce 1 nmol of HGA per minute at 20° C.
(§12) After a preincubation of 30 min the reaction is started by adding 4-HPP to a final concentration of 0.05 mM. The reaction is allowed to proceed for 45 min at room temperature. The reaction is stopped by the addition of 50 μl of 4.5 M phosphoric acid. The sample is filtered using a […] pore size PVDF filtration device.
as §7, §8
(§13) Inhibitors are dissolved in DMSO (dimethylsulfoxide) to a concentration of 0.5 mM. From this stock solution serial five-fold dilutions are prepared in DMSO, which are used in the assay. The respective inhibitor solution accounts for 1% of the assay volume. Thus, final inhibitor concentrations range from 5 μM to 320 pM, respectively. Activities are normalized by setting the uninhibited enzyme activity to 100%. IC50 values are calculated using non-linear regression.
(§14) Purified, mutant HPPD enzymes are obtained by the methods described above. Dose response and kinetic measurements are carried out using the described HPPD activity assay. Apparent michaelis constants (Km) and maximal reaction velocities (Vmax) are calculated by non-linear regression with the software GraphPad Prism 5 (GraphPad Software, La Jolla, USA) using a substrate inhibition model. Apparent kcat values are calculated from Vmax assuming 100% purity of the enzyme preparation. Weighted means (by standard error) of Km and IC50 values are calculated from at least three independent experiments. The Cheng-Prusoff equation for competitive inhibition (Cheng, Y. C.; Prusoff, W. H. Biochem Pharmacol 1973, 22, 3099-3108) is used to calculate dissociation constants (Ki). Examples of the data obtained are depicted in Table 13.

The target in experiment [2] is T3, Arabidopsis HPPD variant Q293H (Arabidopsis thaliana, UniProt P93836, Q293H).
T3 construct: His6 (N); made in house; host or cells: E. coli BL21 (DE3)
Put plainly: HPPD activity assay, mutant enzyme. In kind it is biochemical. How it is done: as §1, §2, §3, §4, §9, §5, §6, §10, §11, §12, §7, §8, §13, §14

The target in the next experiment is Chlamydomonas HPPD1 (Chlamydomonas reinhardtii, UniProt A0A2K3DET7). Kind of experiment: HPPD activity assay, wildtype enzyme. The experiment is classed as biochemical. The conditions noted are these: calculated from IC50 with Cheng-Prusoff equation, read-out: dissociation constant Ki. How it is done:
as §1, §2
Inhibitors are dissolved in DMSO (dimethylsulfoxide) to a concentration of 20 mM or 0.5 mM, respectively. From this stock solution serial five-fold dilutions are prepared in DMSO, which are used in the assay. The respective inhibitor solution accounts for 1% of the assay volume.
as §4, §10
The assay mixture can contain 150 mM potassium phosphate buffer pH 7.0, 50 mM L-ascorbic acid, 100 μM Catalase (Sigma-Aldrich), 1 μM FeSO4 and 0.2 units of purified HPPD enzyme in a total volume of 505 μl. […]
as §8
Inhibitors are dissolved in DMSO (dimethylsulfoxide) to a concentration of 0.5 mM. […] IC50 values are calculated using non-linear regression.
Using methods which are described in the above examples or well known in the art, purified, recombinant wildtype HPPD enzymes are characterized with respect to their kinetic properties and sensitivity towards HPPD inhibiting herbicides. Apparent michaelis constants (Km) and maximal reaction velocities (Vmax) are calculated by non-linear regression with the software GraphPad Prism 5 (GraphPad Software, La Jolla, USA) using a substrate inhibition model. […] Weighted means (by standard error) of Km and IC50 values are calculated from at least three independent experiments.

Experiment [3] relates to Chlamydomonas strain CC1961 wild-type. Kind of experiment: Growth inhibition of Chlamydomonas strains (tolerance). The experiment is classed as cell-based, Chlamydomonas reinhardtii. The conditions noted are these: read-out: IC50 of growth inhibition. How it is done: (§15) Algae cells of Chlamydomonas reinhardtii strains CC-503 and CC-1691 (Duke University, Durham, USA) are propagated in TAP medium (Gorman and Levine (1965) PNAS 54: 1665-1669) by constant shaking at 100 rpm, 22° C. and 30 μmol Phot*m^−2*[…] light illumination. Scenedesmus obliquus (University of Gottingen, Germany) are propagated in algae medium as described (Boger and Sandmann, (1993) In: Target assays for modern herbicides and related phytotoxic compounds, Lewis Publishers) under same culturing conditions as mentioned for Chlamydomonas. Compound screening is performed at 450 μmol Phot*m^−2*[…] illumination.
(§16) Sensitive strains of Chlamydomonas reinhardtii or Scenedesmus obliquus (Tables 14, 15) are mutated with 0.14 […] (EMS) for 1 h as described by Loppes (1969, Mol Gen Genet. 104: 172-177) Tolerant strains are identified by screening of mutagenized cells on solid nutrient solution plates containing “coumarone-derivative herbicides” or other HPPD inhibiting herbicides at wildype-lethal concentrations. Examples of the data obtained are depicted in Table 16 and FIG. 2.

Experiment [4] relates to Chlamydomonas strain CMr06. The experiment is described as above. The experiment is classed as cell-based, Chlamydomonas reinhardtii. How it is done:
as §15, §16

Experiment [5] concerns Chlamydomonas strain CMr04. The description is as above. The experiment is classed as cell-based, Chlamydomonas reinhardtii. The protocol:
as §15, §16

For experiment [6], the system named is Chlamydomonas strain CMr13. Described as above. In kind it is cell-based, Chlamydomonas reinhardtii. The following applies: read-out: IC50 of growth inhibition. The protocol: as §15, §16
Experiment [7] relates to Chlamydomonas strain CMr10. The description is as above. In kind it is cell-based, Chlamydomonas reinhardtii. The following applies: read-out: IC50 of growth inhibition. The protocol: as §15, §16
For experiment [8], the system named is Chlamydomonas strain CMr05. The description is as above. The experiment is classed as cell-based, Chlamydomonas reinhardtii. How it is done: as §15, §16
For experiment [9], the system named is Chlamydomonas strain CMr15. Described as above. In kind it is cell-based, Chlamydomonas reinhardtii. The protocol:
as §15, §16

In the next experiment the test system is C. reinhardtii (CC-503). Kind of experiment: C. reinhardtii growth inhibition by HPPD inhibiting herbicides. In kind it is cell-based, Chlamydomonas reinhardtii.
Text: (§17) Bleaching herbicides with a mode of action in plastoquinone or tocopherol biosynthesis can inhibit algae growth (Tables 14 and 15). These effects can be partly reversed by intermediates of homogentisic acid biosynthesis (Table 14). To generate mutations conferring “coumarone-derivative herbicide” resistance in HPPD or HST genes, chemical or UV mutagenesis can be used. Especially unicellular organisms like Chlamydomonas reinhardtii or Scenedesmus obliquus are useful for identifying dominant mutations in herbicide resistance.
as §15

The subject of another experiment is Scenedesmus obliquus. Put plainly: S. obliquus growth inhibition. In kind it is cell-based.
Text: as §17, §15

Setting [10] is: read-out: IC50 of growth inhibition.

Like-named read-outs stand apart in the source and are kept apart here. Some results are limits rather than exact numbers.

T3 sequence (P93836 whole entry Q293H): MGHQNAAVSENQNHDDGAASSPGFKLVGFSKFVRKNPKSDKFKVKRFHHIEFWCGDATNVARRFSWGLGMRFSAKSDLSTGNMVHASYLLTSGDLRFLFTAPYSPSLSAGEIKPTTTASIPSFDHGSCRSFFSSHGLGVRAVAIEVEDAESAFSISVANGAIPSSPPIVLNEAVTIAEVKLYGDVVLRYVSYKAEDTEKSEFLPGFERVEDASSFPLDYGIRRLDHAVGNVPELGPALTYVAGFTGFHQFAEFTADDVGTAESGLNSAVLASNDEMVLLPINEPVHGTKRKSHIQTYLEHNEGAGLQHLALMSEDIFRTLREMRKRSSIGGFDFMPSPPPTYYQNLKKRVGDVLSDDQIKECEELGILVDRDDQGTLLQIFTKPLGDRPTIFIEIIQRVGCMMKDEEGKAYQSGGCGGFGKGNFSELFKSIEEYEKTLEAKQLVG
Chain of Chlamydomonas HPPD1 (A0A2K3DET7 entry or part of it): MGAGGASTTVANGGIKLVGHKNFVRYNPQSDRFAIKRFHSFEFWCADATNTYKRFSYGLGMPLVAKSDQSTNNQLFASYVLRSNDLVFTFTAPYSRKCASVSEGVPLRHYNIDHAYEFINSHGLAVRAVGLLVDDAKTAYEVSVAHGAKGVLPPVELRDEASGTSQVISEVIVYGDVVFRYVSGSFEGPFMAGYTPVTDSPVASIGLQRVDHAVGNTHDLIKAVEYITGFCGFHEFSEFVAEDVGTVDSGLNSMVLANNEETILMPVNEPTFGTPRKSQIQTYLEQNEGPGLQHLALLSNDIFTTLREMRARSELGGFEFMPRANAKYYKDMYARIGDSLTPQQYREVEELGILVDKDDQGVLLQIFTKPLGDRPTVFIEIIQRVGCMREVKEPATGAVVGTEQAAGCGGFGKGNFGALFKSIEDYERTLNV
T2 sequence (P93836 whole entry Q293N): as the sequence (P93836 whole entry Q293H) above, with H293N counted along it

Consider `O=S1(=O)C(c2ccc(Cl)cc2Cl)=C(O)c2ncccc2N1CC(F)F` [Inhibitor 2, 3-(2,4-dichlorophenyl)-1-(2,2-difluoroethyl)-2,2-dioxo-pyrido[3,2-c]thiazin-4-ol], for which the inhibition constant (Ki) – broadly, the equilibrium dissociation constant of an inhibitor or competing ligand from its target – was 13 nM on Arabidopsis HPPD, 44 nM in experiment [1], 19 nM in experiment [2] and 139 nM at Chlamydomonas HPPD1.
In the case of `CS(=O)(=O)c1ccc(C(=O)C2C(=O)CCCC2=O)c([N+](=O)[O-])c1` [Mesotrione, reference compound], the 50% inhibitory concentration (IC50) (usually the concentration at which inhibition is half-maximal) in [3] is 30 µM; in experiment [4] (setting [10]), over 600 µM; in experiment [5] (setting [10]), over 600 µM; in experiment [6], over 600 µM; in experiment [7], 450 µM; in experiment [8] (setting [10]), over 600 µM. Besides, the 50% inhibitory concentration (IC50) in [9] (setting [10]) is 540 µM.
As to `C#Cc1ccc(-c2c(O)c3ncccc3oc2=O)c(C(F)(F)F)c1` [drawing 20], in the experiment on C. reinhardtii (CC-503) (c 1 * 10^−4 M), the “Growth inihibition [%] C. reinhardtii (CC-503)” value came to 61% and the “Growth inihibition [%] C. reinhardtii (CC-503) + Homogentisic acid” value was determined as 43%. Besides, in the experiment with C. reinhardtii (CC-503) (c 5 * 10^−4 M), the “Growth inihibition [%] C. reinhardtii (CC-503)” value is listed as 90% and the “Growth inihibition [%] C. reinhardtii (CC-503) + Homogentisic acid” value came out at 67%.
Take `C#Cc1ccc(-c2c(O)c3ncccc3oc2=O)c(C(F)(F)F)c1` [drawing 21, 3-[4-ethynyl-2-(trifluoromethyl)phenyl]-4-hydroxy-pyrano[3,2-b]pyridin-2-one]: the “Growth inihibition [%] Scenedesmus obliquus” value in the experiment with Scenedesmus obliquus (c 1 * 10^−4 M) was 100%; with Scenedesmus obliquus (c 1 * 10^−5 M), 77%.
In the case of `Cc1c(-c2c(O)c3ncccc3oc2=O)ccc(S(C)(=O)=O)c1C1=NOC(C)C1` (stereo not drawn) [“coumarone-derivative herbicides” 1, 4-hydroxy-3-[2-methyl-3-(5-methyl-4,5-dihydroisoxazol-3-yl)-4-methylsulfonyl-phenyl]pyrano[3,2-b]pyridin-2-one], the half-inhibitory concentration (IC50) in [3] (strain CC1961 wild-type) was 760 µM; in experiment [4] (strain CMr06, read-out: IC50 of growth inhibition), over 1000 µM; in [5] (strain CMr04, read-out: IC50 of growth inhibition), over 1000 µM; in experiment [6], 950 µM; in experiment [7], over 1000 µM; in experiment [8] (strain CMr05, read-out: IC50 of growth inhibition), over 1000 µM. Besides, the 50% inhibitory concentration (IC50) in experiment [9] (strain CMr15, read-out: IC50 of growth inhibition) was over 1000 µM.
